Reference: patent US8178506B2, “Oligomeric compounds and compositions for use in modulation of small non-coding RNAs” (Regulus Therapeutics Inc., priority 2003, dated 2012)
In the oligonucleotide strings, read from the 5' end, every base follows the letter of its sugar. An asterisk marks phosphorothioate; unmarked linkages are phosphodiester. Other units and linkages are bracketed, terminal groups are in braces. A string of capitals states the bases alone. e = 2'-O-(2-methoxyethyl) (MOE); [5mC] = 5-methylcytosine; d = 2'-deoxy (DNA)

How the values were obtained:
T47D cells = assay: Caspase-3 activity assay (apoptosis) in T47D cells; conditions: T47D cells, 200 nM, 48 hours, relative to untreated control
mir-15a pri-miRNA = mir-15a pri-miRNA expression in T47D cells (real-time RT-PCR); format: cell-based, human; conditions: real-time RT-PCR
Procedure, shortened: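 T47D cells transfected with 100 nM uniform 2′-MOE or gapmer oligomers. Pri-miRNA measured by real-time RT-PCR with a mir-15a-specific primer/probe set, normalized to 5.8S rRNA, expressed as percentage of untreated control RNA levels.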

328403 (antisense eA*eG*eG*e[5mC]*e[5mC]*dT*dA*dT*dT*d[5mC]*d[5mC]*dT*dG*dT*dA*eG*e[5mC]*eA*eA*eA) [compound 328403]
Fold Increase over UTC (caspase activity) (T47D cells): 1.0

129690 (antisense TTAGAATACGTCGCGTTATG; sugars from the 5' end e5 d10 e5, all phosphorothioate, methylation of C not given here) [compound 129690]
mir-15a pri-miRNA expression % UTC (mir-15a pri-miRNA): 121 % UTC
